Assay results published in patent US4255444A, “4-Hydroxy-2-pyrone derivatives having antihyperlipaemic activity” (Sankyo Company Limited, priority 1978, dated 1981).

Biological target: cholesterol biosynthesis (crude enzyme extracted from rat liver)
Experiment: Inhibition of cholesterol biosynthesis by crude enzyme extracted from rat liver (radioactive acetic acid incorporation, digitonin precipitation)
Format: biochemical
Details: 37° C., 60 minutes, compound added at beginning of reaction
Procedure: Crude enzyme extracted from rat liver was reacted with radioactive acetic acid at 37° C. for 60 minutes. The radioactive cholesterol thus biosynthesized was saponified and precipitated with digitonin, and the radioactivity was measured to determine the amount of cholesterol produced. The reaction was repeated, but adding one of the compounds of the invention listed in the following Table at the beginning of the reaction, and the amount of cholesterol biosynthesized was again determined, to give a quantitative measurement of the inhibitory effect of the compounds of the invention. The concentrations (μg/ml) of the compounds of the invention and of a known compound (clofibrate) which gave approximately 50% inhibition of cholesterol biosynthesis are reported in the following Table as I50 values [see Bricker et al, The Journal of Biological Chemistry, 247, 4914 (1972)]. The compounds of the invention are identified in the following Table by the numbers heretofore assigned to them.

SMILES	I50 (concentration giving approximately 50% inhibition of cholesterol biosynthesis)
Cc1ccc2ccccc2c1CCC1CC(O)CC(=O)O1 (centres unmarked) [Compound No. 1, 4-Hydroxy-6-[2-(2-methyl-1-naphthyl)ethyl]-3,4,5,6-tetrahydro-2H-pyran-2-one]	0.75 µg/mL
O=C1CC(O)CC(CCc2cccc3ccccc23)O1 (centres unmarked) [Compound No. 3, 4-Hydroxy-6-[2-(1-naphthyl)ethyl]-3,4,5,6-tetrahydro-2H-pyran-2-one]	6.4 µg/mL
CCOC(=O)C(C)(C)Oc1ccc(Cl)cc1 [Clofibrate, reference compound]	250 to 300 µg/mL
CC(C)(Oc1ccc(Cl)cc1)C1CC(O)CC(=O)O1 (centres unmarked) [Compound No. 4, 6-[1-(4-Chlorophenoxy)-1-methylethyl]-4-hydroxy-3,4,5,6-tetrahydro-2H-pyran-2-one]	21.3 µg/mL
CC(Oc1ccccc1)C1CC(O)CC(=O)O1 (centres unmarked) [Compound No. 2, 4-Hydroxy-6-(1-phenoxyethyl)-3,4,5,6-tetrahydro-2H-pyran-2-one]	42.3 µg/mL
